Laboratory results from ChEMBL document CHEMBL1157613, “Salicylic acid based small molecule inhibitor for the oncogenic Src homology-2 domain containing protein tyrosine phosphatase-2 (SHP2)” (J Med Chem, 2010).
Activity calls are given as the source filed them. The calls are words filed in the database; no cut-off is given here.

Biological target: T1, Tyrosine-protein phosphatase non-receptor type 11 (Mus musculus) (UniProt P35235)
T1 sequence (whole entry): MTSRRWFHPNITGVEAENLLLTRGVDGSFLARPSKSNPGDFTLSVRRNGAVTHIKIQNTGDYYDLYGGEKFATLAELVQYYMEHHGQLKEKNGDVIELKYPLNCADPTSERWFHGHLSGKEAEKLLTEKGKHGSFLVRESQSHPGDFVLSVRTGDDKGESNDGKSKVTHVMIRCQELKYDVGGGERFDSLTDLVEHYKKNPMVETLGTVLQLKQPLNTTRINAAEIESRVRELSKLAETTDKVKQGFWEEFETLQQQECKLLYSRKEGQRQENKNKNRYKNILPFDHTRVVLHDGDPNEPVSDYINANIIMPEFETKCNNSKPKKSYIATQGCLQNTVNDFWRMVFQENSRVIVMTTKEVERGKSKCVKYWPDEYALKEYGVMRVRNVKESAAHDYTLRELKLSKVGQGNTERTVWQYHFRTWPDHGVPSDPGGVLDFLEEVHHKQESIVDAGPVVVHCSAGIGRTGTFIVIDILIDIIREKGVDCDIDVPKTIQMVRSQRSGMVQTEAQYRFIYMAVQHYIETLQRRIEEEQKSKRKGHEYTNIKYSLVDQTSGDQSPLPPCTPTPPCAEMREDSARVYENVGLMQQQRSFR
Experiment: Inhibition of SHP2-dependent ERK1/2 activation in EGF-stimulated mouse NIH/3T3 cells assessed as phosphorylated ERK1/2 level at 10 uM treated for 3 hrs before EGF challenge measured after 60 mins of EGF stimulation by immunoblot analysis
Format: cell-based
Details: NIH3T3

inhibition: Active
SMILES: Cn1c(-c2ccccc2)c(-c2cn(CCC(=O)Nc3ccc(-c4ccccc4)cc3)nn2)c2cc(C(=O)O)c(O)cc21
